We go through eight compounds from paper PMC3029496 (Biochemistry, 2010).

Where two headings read alike, the source gives them in different places.

Series [1] deals with T1, PncA (Mycobacterium tuberculosis, UniProt I6XD65). As to the kind of experiment: biochemical. Format: biochemical.
For series [2], the target named is Mycobacterium tuberculosis PncA (MtPncA) (Mycobacterium tuberculosis, UniProt I6XD65).
The target of series [3] is T1, PncA. Nature of the series: Inactivation of PncA by iodoacetamide. Format: biochemical. Conditions: concentration and pH dependent loss of activity.
Series [4] deals with T1, PncA. It is filed as biochemical.
The subject of series [5] is NC(=O)c1cnccn1. As to the kind of experiment: purified protein, by the assay type. Particulars: pH 7.5; 25.0 °C.

Chain of Mycobacterium tuberculosis PncA (MtPncA) (I6XD65 whole entry): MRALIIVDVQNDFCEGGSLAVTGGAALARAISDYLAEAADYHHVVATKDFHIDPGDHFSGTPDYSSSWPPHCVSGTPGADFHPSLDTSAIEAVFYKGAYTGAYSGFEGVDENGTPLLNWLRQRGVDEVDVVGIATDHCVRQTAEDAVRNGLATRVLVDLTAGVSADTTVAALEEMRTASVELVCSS
T1 sequence (I6XD65 whole entry): as above

As to `O=Cc1cccnc1` [3-pyridine carboxaldehyde], the mode of inhibition result in series [1] was “competitive inhibitor”.

Broadly, the Ki is a dissociation constant, usually derived from enzyme kinetics or from competition with a known ligand. Read a high Ki as lower affinity. For the compound `N#Cc1cccnc1` [3-pyridinecarbonitrile], in series [1], the mode of inhibition result is listed as “reversible, competitive inhibitor”. Moreover, the Ki in series [1] (Ki, reversible, competitive inhibitor) is around 100 µM. Moreover, the “enzymatic activity with the compound as substrate” value (“enzymatic activity” below) in series [2] was “Neither compound is a substrate”.

As to `NC(=O)c1ccc(N)nc1` [6-aminonicotinamide], the “enzymatic activity” value in series [2] was “did not observe any enzymatic activity”.

With `O=C(O)CN(CCN(CC(=O)O)CC(=O)O)CC(=O)O` [EDTA, ethylenediaminetetraacetic acid], the “effect of addition on MtPncA activity” value in series [2] is on record as “neither the addition of 5 mM EDTA, nor reported inhibitory metals (Zn^+2 for MtPncA) resulted in any decrease in activity”.

For the compound `NC(=O)c1ccccc1` [benzamide], in series [2], the “enzymatic activity” value was “did not observe any enzymatic activity”.

For the compound `NC(=O)CI` [iodoacetamide], the “inactivation of PncA” value in series [3] is “inactivator of PncA”.

What is called kinact/KI is the second-order rate constant of inactivation. For `N#Cc1cnccn1` [pyrazinecarbonitrile], in series [2], the “enzymatic activity” value was “Neither compound is a substrate”. Moreover, in series [4], the kinact/KI is 975 M⁻¹ s⁻¹ and the mode of inhibition result was “irreversible inactivator”. Also, in series [4] (pH 7.5), the kinact result was “Kinact = 0.06 ± 0.01 sec^−1 Ki = 61 ± 3 μM”. In addition, the KI (inactivation) in series [4] (read-out: Ki (inactivation), pH 7.5) came out at 61 µM.

As usually defined, the Km is the concentration of substrate that gives half-maximal velocity. Broadly, the kcat is the maximal rate divided by the concentration of active sites. One may read the kcat/Km as the turnover number divided by the Michaelis constant. (Mycobacterium tuberculosis H37Rv): in series [5], the Km stood at 300 ± 40 µM, the kcat worked out at 3.8 ± 0.1 s⁻¹ and the kcat/Km was 13000 M⁻¹ s⁻¹.
